Drawing on US7388016B2, “Dibenzonaphthyridine derivatives and methods of use thereof” (Wyeth, priority 2005, dated 2008), this text covers IC50 for 34 compounds.

In the experiment the target is T1, PDK-1 (Homo sapiens, UniProt O15530).
T1 sequence (O15530 1-556): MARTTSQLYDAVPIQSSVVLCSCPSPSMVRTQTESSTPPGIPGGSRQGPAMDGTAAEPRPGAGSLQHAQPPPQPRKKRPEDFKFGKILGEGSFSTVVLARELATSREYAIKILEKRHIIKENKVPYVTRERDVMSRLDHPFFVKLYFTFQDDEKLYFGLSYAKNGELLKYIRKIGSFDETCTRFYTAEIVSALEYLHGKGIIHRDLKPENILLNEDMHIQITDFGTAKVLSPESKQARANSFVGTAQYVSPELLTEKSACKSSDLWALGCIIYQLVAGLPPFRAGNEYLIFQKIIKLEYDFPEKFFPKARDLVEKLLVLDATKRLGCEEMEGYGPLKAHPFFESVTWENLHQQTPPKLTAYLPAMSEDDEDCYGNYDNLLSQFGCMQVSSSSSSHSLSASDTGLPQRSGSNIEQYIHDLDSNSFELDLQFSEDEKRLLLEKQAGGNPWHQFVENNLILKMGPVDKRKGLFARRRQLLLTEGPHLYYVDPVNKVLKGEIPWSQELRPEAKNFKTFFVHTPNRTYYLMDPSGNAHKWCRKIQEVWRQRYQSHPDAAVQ
Briefly: In vitro PDK-1 inhibition ELISA assay (phosphorylation of SGK1 on Threonine 256). Format: biochemical. The following applies: PDK-1 phosphorylates 6xHIS tagged SGK1, 17 minutes reaction, chemiluminescent detection. The protocol: The ability of illustrative Dibenzonaphthyridine Derivatives to inhibit PDK-1 in vitro can be determined using the ELISA assay as decribed in Kobayashi et al., Biochem. J. 339:319-328 (1999) and Park et al., EMBO J. 18:3024-3033 (1999).
In this in vitro assay, PDK-1 kinase phosphorylates SGK1 on Threonine 256. After 17 minutes, the reaction is quenched via the addition of urea. The 6×HIS tagged SGK1 is then bound to 96 well Ni-NTA HisSorb plates and the phosphorylated SGK1 is detected using rabbit derived anti-phospho SGK antibody as the primary antibody and HRP coupled anti-rabbit antibody as the secondary antibody. HRP is then detected using a Chemiluminescent Substrate.
For orientation: ELISA stands for enzyme-linked immunosorbent assay.
For the compound `COc1cc2ncc3c(OC)nc4c(C)c(OC)ccc4c3c2cc1OC` [Compound I-1, 2,3,7,10-tetramethoxy-9-methyldibenzo[c,f]-2,7-naphthyridine], it took 23800 nM to reach half-maximal inhibition (IC50).
As for `COc1cc2ncc3cnc4c(C)c(N)ccc4c3c2cc1OC` [Compound I-3, 10,11-dimethoxy-4-methyldibenzo[c,f]-2,7-naphthyridin-3-amine], the figure is 2500 nM.
In turn, `COc1cc2ncc3c(N)nc4ccccc4c3c2cc1OC` [Ib-1, 10,11-dimethoxydibenzo[c,f]-2,7-naphthyridin-6-amine] registered an IC50 of 2400 nM.
The same measure for `COc1cc2ncc3c(N)nc4c(C)c(N)ccc4c3c2cc1OC` [Ib-2, 10,11-dimethoxy-4-methyldibenzo[c,f]-2,7-naphthyridine-3,6-diamine]: 93 nM; for `CCOc1cc2ncc3c(N)nc4c(C)c(N)ccc4c3c2cc1OCC` [Ib-3, 10,11-diethoxy-4-methyldibenzo[c,f]-2,7-naphthyridine-3,6-diamine]: 273 nM; for `COc1cc2c(cc1F)ncc1c(N)nc3c(C)c(N)ccc3c12` [Ib-4, 10-fluoro-11-methoxy-4-methyldibenzo[c,f]-2,7-naphthyridine-3,6-diamine]: 388 nM.
Consider `COc1cc2c(cc1N(C)CCCN(C)C)ncc1c(N)nc3c(C)c(N)ccc3c12` [Ib-5, N^10-[3-(dimethylamino)propyl]-11-methoxy-N^10,4-dimethyldibenzo[c,f]-2,7-naphthyridine-3,6,10-triamine], for which the IC50 was 1010 nM.
The same measure for `COc1cc2c(cc1N(C)CCN(C)C)ncc1c(N)nc3c(C)c(N)ccc3c12` [Ib-6, N^10-[2-(dimethylamino)ethyl]-11-methoxy-N^10,4-dimethyldibenzo[c,f]-2,7-naphthyridine-3,6,10-triamine]: 1170 nM; for `COc1cc2c(cc1NCCCN1CCN(C)CC1)ncc1c(N)nc3c(C)c(N)ccc3c12` [Ib-7, 11-methoxy-4-methyl-N^10-[3-(4-methylpiperazin-1-yl)propyl]dibenzo[c,f]-2,7-naphthyridine-3,6,10-triamine]: 555 nM; for `COc1cc2c(cc1NCCCN1CCOCC1)ncc1c(N)nc3c(C)c(N)ccc3c12` [Ib-8, 11-methoxy-4-methyl-N^10-(3-morpholin-4-ylpropyl)dibenzo[c,f]-2,7-naphthyridine-3,6,10-triamine]: 290 nM.
Take `COc1cc2c(cc1NCCN1CCOCC1)ncc1c(N)nc3c(C)c(N)ccc3c12` [Ib-9, 11-methoxy-4-methyl-N^10-(2-morpholin-4-ylethyl)dibenzo[c,f]-2,7-naphthyridine-3,6,10-triamine]: the IC50 worked out at 296 nM.
`COc1cc2c(cc1OCCN1CCOCC1)ncc1c(N)nc3c(C)c(N)ccc3c12` [Ib-10, 11-methoxy-4-methyl-10-(2-morpholin-4-ylethoxy)dibenzo[c,f]-2,7-naphthyridine-3,6-diamine]: the IC50 came out at 57.5 nM.
Turning to `COc1cc2c(cc1OCCCN1CCOCC1)ncc1c(N)nc3c(C)c(N)ccc3c12` [Ib-11, 11-methoxy-4-methyl-10-(3-morpholin-4-ylpropoxy)dibenzo[c,f]-2,7-naphthyridine-3,6-diamine], the IC50 turned out to be 121 nM.
As for `COc1cc2c(cc1NCCCN1CCCC1)ncc1c(N)nc3c(C)c(N)ccc3c12` [Ib-12, 11-methoxy-4-methyl-N^10-(3-pyrrolidin-1-ylpropyl)dibenzo[c,f]-2,7-naphthyridine-3,6,10-triamine], the figure is 846 nM; as for `COc1cc2c(cc1NCCN1CCCC1)ncc1c(N)nc3c(C)c(N)ccc3c12` [Ib-13, 11-methoxy-4-methyl-N^10-(2-pyrrolidin-1-ylethyl)dibenzo[c,f]-2,7-naphthyridine-3,6,10-triamine], 3710 nM; as for `COc1cc2c(cc1NCCN(C)C)ncc1c(N)nc3c(C)c(N)ccc3c12` [Ib-14, N^10-[2-(dimethylamino)ethyl]-11-methoxy-4-methyldibenzo[c,f]-2,7-naphthyridine-3,6,10-triamine], 2410 nM.
`COc1cc2c(cc1NCCCN(C)C)ncc1c(N)nc3c(C)c(N)ccc3c12` [Ib-15, N^10-[3-(dimethylamino)propyl]-11-methoxy-4-methyldibenzo[c,f]-2,7-naphthyridine-3,6,10-triamine] registered an IC50 of 972 nM.
The same measure for `COc1cc2c(cc1OCC1CCN(C)CC1)ncc1c(N)nc3c(C)c(N)ccc3c12` [Ib-16, 11-methoxy-4-methyl-10-[(1-methylpiperidin-4-yl)methoxy]dibenzo[c,f]-2,7-naphthyridine-3,6-diamine]: 878 nM.
As for `COCCOc1cc2ncc3c(N)nc4c(C)c(N)ccc4c3c2cc1OCCOC` [Ib-17, 10,11-bis(2-methoxyethoxy)-4-methyldibenzo[c,f]-2,7-naphthyridine-3,6-diamine], the figure is 275 nM; as for `COc1cc2c(cc1OCCCl)ncc1c(N)nc3c(C)c(N)ccc3c12` [Ib-18, 10-(2-chloroethoxy)-11-methoxy-4-methyldibenzo[c,f]-2,7-naphthyridine-3,6-diamine], 42.5 nM; as for `COc1cc2c(cc1OCCN1CC1)ncc1c(N)nc3c(C)c(N)ccc3c12` [Ib-19, 10-(2-aziridin-1-ylethoxy)-11-methoxy-4-methyldibenzo[c,f]-2,7-naphthyridine-3,6-diamine], 482 nM.
As for `COc1cc2c(cc1OCCN(C)C)ncc1c(N)nc3c(C)c(N)ccc3c12` [Ib-20, 10-[2-(dimethylamino)ethoxy]-11-methoxy-4-methyldibenzo[c,f]-2,7-naphthyridine-3,6-diamine], the figure is 377 nM.
Consider `COc1cc2c(cc1OCCCN(C)C)ncc1c(N)nc3c(C)c(N)ccc3c12` [Ib-21, 10-[3-(dimethylamino)propoxy]-11-methoxy-4-methyldibenzo[c,f]-2,7-naphthyridine-3,6-diamine], for which the IC50 was found to be 196 nM.
`COc1cc2c(cc1OCCN1CCCC1)ncc1c(N)nc3c(C)c(N)ccc3c12` [Ib-22, 11-methoxy-4-methyl-10-(2-pyrrolidin-1-ylethoxy)dibenzo[c,f]-2,7-naphthyridine-3,6-diamine] came in with an IC50 of 261 nM.
As for `CCN(CC)CCOc1cc2ncc3c(N)nc4c(C)c(N)ccc4c3c2cc1OC` [Ib-23, 10-[2-(diethylamino)ethoxy]-11-methoxy-4-methyldibenzo[c,f]-2,7-naphthyridine-3,6-diamine], the figure is 347 nM; as for `COc1cc2c(cc1OCCc1ccccn1)ncc1c(N)nc3c(C)c(N)ccc3c12` [Ib-24, 11-methoxy-4-methyl-10-(2-pyridin-2-ylethoxy)dibenzo[c,f]-2,7-naphthyridine-3,6-diamine], 2860 nM.
Compound `COc1cc2c(cc1OCCC1CCCN1C)ncc1c(N)nc3c(C)c(N)ccc3c12` (stereo not shown) [Ib-25, 11-methoxy-4-methyl-10-[2-(1-methylpyrrolidin-2-yl)ethoxy]dibenzo[c,f]-2,7-naphthyridine-3,6-diamine] registered a 50% inhibitory concentration (IC50) of 288 nM.
As for `COc1cc2c(cc1OCCN1CCCCC1)ncc1c(N)nc3c(C)c(N)ccc3c12` [Ib-26, 11-methoxy-4-methyl-10-(2-piperidin-1-ylethoxy)dibenzo[c,f]-2,7-naphthyridine-3,6-diamine], the figure is 324 nM.
With `CCN(CC)CCCOc1cc2ncc3c(N)nc4c(C)c(N)ccc4c3c2cc1OC` [Ib-27, 10-[3-(diethylamino)propoxy]-11-methoxy-4-methyldibenzo[c,f]-2,7-naphthyridine-3,6-diamine], the IC50 amounted to 295 nM.
Take `COc1cc2c(cc1OCCN1CCCCCC1)ncc1c(N)nc3c(C)c(N)ccc3c12` [Ib-28, 10-(2-azepan-1-ylethoxy)-11-methoxy-4-methyldibenzo[c,f]-2,7-naphthyridine-3,6-diamine]: half-maximal inhibition (IC50) was put at 350 nM.
The same measure for `COc1cc2c(cc1OCCCN1CCCCC1)ncc1c(N)nc3c(C)c(N)ccc3c12` [Ib-29, 11-methoxy-4-methyl-10-(3-piperidin-1-ylpropoxy)dibenzo[c,f]-2,7-naphthyridine-3,6-diamine]: 243 nM; for `COc1cc2c(cc1OCCN(C)CCN(C)C)ncc1c(N)nc3c(C)c(N)ccc3c12` [Ib-30, 10-{2-[[2-(dimethylamino)ethyl](methyl)amino]ethoxy}-11-methoxy-4-methyldibenzo[c,f]-2,7-naphthyridine-3,6-diamine]: 281 nM; for `COc1cc2c(cc1OCCc1c[nH]c3ccccc13)ncc1c(N)nc3c(C)c(N)ccc3c12` [Ib-31, 10-[2-(1H-indol-3-yl)ethoxy]-11-methoxy-4-methyldibenzo[c,f]-2,7-naphthyridine-3,6-diamine]: 539 nM.
As for `COc1cc2c(cc1OCCc1ccc(N(C)C)cc1)ncc1c(N)nc3c(C)c(N)ccc3c12` [Ib-32, 10-{2-[4-(dimethylamino)phenyl]ethoxy}-11-methoxy-4-methyldibenzo[c,f]-2,7-naphthyridine-3,6-diamine], the figure is 667 nM.

As a reminder, the IC50 is the concentration needed to halve the response being measured. A low value points to greater potency in that assay.
